Laboratory results published in US9051351B2, “Hepatocyte growth factor mimics as therapeutic agents” (Washington State University, priority 2011, dated 2015).
Entries after “also recorded” stand apart in the source; their conditions may differ. Where a SMILES comes first, the peptide text is derived from it. [ ]: non-standard residue; d: D form. dNle = CCCC[C@@H](N)C(=O)O; Ahx = NCCCCCC(=O)O

Columns and labels:
[1] = in vitro; conditions: male, rat, pH 7.38
[2] = biological target: T1, human HGF (Homo sapiens, UniProt P14210); assay: HGF dimerization (PAGE, silver staining); type: biochemical; conditions: analog 10^−10 M, heparin, 30 minute incubation
T1 construct: purchased R&D Systems (Minneapolis, Minn.)
Description: HGF dimerization was assessed using PAGE followed by silver staining (Kawas et al., 2011). Human HGF at a concentration of 0.08 ng/μl with or without 6-AH analogs was incubated with heparin at a final concentration of 5 μg/ml. Loading buffer was then added to each sample and the mixture separated by native PAGE using gradient Criterion XT precast gels (4-12% Bis-Tris; Biorad Laboratories, Hercules, Calif.). Next the gel was silver stained for the detection of the HGF monomers and dimers. Bands were quantitated from digital images using a UVP phosphoimager (Upland, Calif.).

[3] = test system: MDCK cells; assay: Inhibition of HGF-dependent scattering in MDCK cells; type: cell-based, canine; conditions: HGF 20 ng/ml, 48 h
Description: (§1) MDCK cells were grown to 100% confluency on the coverslips in six-well plates and washed twice with PBS. The confluent coverslips were then aseptically transferred to new six well plates containing 900 μl serum free DMEM. Norleual, Hinge peptide, and/or HGF (20 ng/ml) were added to appropriate wells. Control wells received PBS vehicle. Plates were incubated at 37° C. with 5% CO2 for 48 hours. Media was removed and cells were fixed with methanol. Cells were stained with Diff-Quik Wright-Giemsa (Dade-Behring, Newark, Del.) and digital images were taken. Coverslips were removed with forceps and more digital images were captured. Pixel quantification of images was achieved using Image J and statistics were performed using Prism 5 and InStat v.3.05.
as §1, with “h.” for “hours.”, “Cells were stained with Diff-Quik Wright-Giemsa (Dade-Behring, Newark, Del.) and digital images were taken. Coverslips were removed with forceps and more digital images were captured.” left out, “v.3.05 (GraphPad; San Diego, Calif.).” for “v.3.05.”

[4] = test system: MDCK cells; assay: HGF-dependent MDCK cell proliferation (MTT); type: cell-based, canine; conditions: analog 10^−10M, HGF 10 ng/ml, 4 days
Description: 5000 MDCK cells were seeded into the wells of a 96 well plates in 10% FBS DMEM. To induce cellular quiescence, the cells were serum deprived for 24 h prior to initiating the treatments. Following serum starvation, 10 ng/ml HGF alone and with various concentrations of 6-AH analogs or PBS vehicle were added to the media. The cells were allowed to grow under these conditions for 4 days with a daily addition of 6-AH analogs. On the fourth day, 1 mg/ml of […] (MTT, Sigma-Aldrich) prepared in PBS was added to the cells and incubated for 4 h. Dimethyl sulfoxide diluted in a 0.01M glycine buffer was added to solubilize the cell membranes and the absorbance of reduced MTT in the buffer was quantitated at 590 nm using a plate reader (Biotek Synergy 2, Winooski, Vt.). HGF-dependent proliferation was determined by subtracting the basal proliferation (in the absence of HGF) from total proliferation rates in groups containing HGF.

[5] = test system: hippocampal neurons; assay: Dendritic spine counts (spinogenesis) in mRFP-β-actin transfected dissociated hippocampal neurons; type: cell-based, rat; conditions: HGF 10 ng/ml, Dihexa or Nle1-AngIV 10^−12 M
Description: Hippocampal neurons (2×10^5 cells per square cm) were cultured from P1 Sprague Dawley rats on plates coated with poly-L-lysine from Sigma (St. Louis, Mo.; molecular weight 300,000). […] Each experiment was repeated at least three times using independent culture preparations. […] Hippocampal neurons (2×10^5 cells per square centimeter) were cultured from P1-2 Sprague Dawley rats on plates coated with poly-L-lysine from Sigma (St. Louis, Mo.; molecular weight 300,000). Hippocampal neurons were maintained in Neurobasal A media from Invitrogen (Carlsbad, Calif.) supplemented with B27 from Invitrogen, 0.5 mM L-glutamine, and […] cytosine-D-arabinofuranoside from Sigma added at 2 days in vitro. Hippocampal neurons were then cultured a further 3-7 days, at which time they were either transfected or treated with various pharmacological reagents as described in the text or figure legends. Neurons were transfected with mRFP-β-actin on day in vitro 6 […] using LipofectAMINETM 2000 (Invitrogen) according to the manufacturer's protocol. […] On DIV7 the cells were treated with vehicle (H20) or peptides (as described in the text) added to media. […] Five 50 μm long segments of dendrite from at least 10 neurons per data point were analyzed for each data point reported. Each experiment was repeated at least three times using independent culture preparations. […] A target sequence for c-Met was designed using RNAi central design program (see the website located at […].edu/). The target sequence […] NO: 2) was inserted into pSUPER vector (Oligoengine, Seattle Wash.) which drives endogenous production of shRNA under the H1 promoter. The shRNA was transfected into cells using the lipofectamine method described above. Verification of receptor knockdown was done by creating a c-[…]-Myc tagged gene product using the Gateway cloning system (Invitrogen). The Met protein coding sequence was cloned from rat whole brain cDNA using primers obtained from Integrated DNA Technologies, Inc. The amplified product was gel purified and a band corresponding to 190 kDa band excised and cloned into a […] destination vector (Gateway). Hippocampal neurons (2×10^5 cells per square cm) were cultured from P1 Sprague Dawley rats on plates coated with poly-L-lysine from Sigma (St. Louis, Mo.; molecular weight […]).

[6] = test system: hippocampal neurons; assay: Immunocytochemistry: percent correlation of spines to synaptic markers; type: cell-based, rat; conditions: HGF 10 ng/ml, 5 days
Description: (§2) Transfected neurons were treated, fixed and stained. Briefly, cells were permeablized with 0.1% Triton X-100 detergent (Bio-Rad; Hercules, Calif.) for 10 minutes. An 8% bovine serum albumin (Intergen Company; Burlington, Mass.) in PBS was used to prevent non-specific binding for one hour at R.T.; Primary antibody incubations were at a 1:2500 dilution (see below) in 1% BSA in PBS at 4° C. overnight. Secondary antibody, 1:3000 Alexafluor 488 goat-anti-mouse (Invitrogen: Carlsbad, Calif.) was applied for two hours at room temperature. Coverslips were mounted with ProLong Gold anti-fade reagent (Invitrogen; Carlsbad, Calif.) and all washes were done with PBS. Imaging and analysis were performed as described above. For presynaptic excitatory transmission the VGLUT1 (Synaptic Systems, Goettingen, Germany) marker (Balschun, Moechars et al.) was employed and for general presynaptic transmission synapsin1 (Synaptic Systems, Goettingen, Germany) (Ferreira and Rapoport 2002) was applied. A postsynaptic function was established by PSD-95 (Milipore, Billerica, Mass.) (El-Husseini, Schnell et al. 2000). In each instance the total number of spines was counted for the treatment groups, control, Nle1-AngIV and Dihexa, to ensure an active phenotype. The total number of actin enriched spines adjacent to VGLUT1 or Synapsin were counted and converted to a percentage as the percent correlation of treatment-induced spines to presynaptic markers is a strong indicator of ability to transmit excitatory signals.
as §2, with “fixed and stained as previously described in Chapter two. Briefly, cells” for “fixed and stained. Briefly, cells”, “enriched spines (red) adjacent to” for “enriched spines adjacent to”
Transfected neurons were treated and fixed as described above. Following fixation, cells were rinsed in PBS and permeabilized with 0.1% Triton® X-100 detergent (Bin-Rad; Hercules, Calif.), followed by two rinses in PBS and blocked with 8% bovine serum albumin (Intergen Company; Burlington, Mass.) in PBS for 1 h. […]

[7] = test system: c-Met receptor; assay: c-Met phosphorylation in acute adult hippocampal slices; type: cell-based, rat; conditions: 30 minutes
Excerpt: Adult Sprague-Dawley rats (250 g+) obtained from Harlan Laboratories (Ca, USA) were anesthetized with isofluorane (Vet One™, MWI, Meridian, Id., USA) and decapitated. The brain was rapidly removed and placed into ice-chilled artificial cerebrospinal fluid (aCSF) for approximately 30 s. Both hemispheres were separated by a mid-saggital cut and both hippocampi removed. Slices were sectioned cross- and length-wise (400 μm) to ensure penetrability of the drug, using a Mcllwain tissue chopper (Brinkmann, Gomshall, UK) and transferred to a gassed (95% O2/5% CO2) incubation chamber containing aCSF for 90 minutes at room temperature. Slices were transferred to fresh tubes, aCSF was removed by careful suctioning and replaced with aCSF containing vehicle (aCSF+aCSF), 100 ng/ml with carrier free adult recombinant Hepatocyte Growth Factor (HGF) (R and D Systems, MN, USA) in aCSF, 10^−10 M Hinge (Harding lab), […], 10^−10 M Dihexa (Harding lab) in aCSF, 10^−12 M Dihexa in aCSF or 50 ng/ml HGF+10^−12 M Dihexa in aCSF for 30 minutes at 37° C. with gentle rocking. aCSF was removed and the slices were lysed using RIPA buffer (Upstate/Milipore, Billerica, Mass.) and inhibitor Cocktails I and II (Sigma, St. Louis, Mo.), sonicated on ice and clarified by centrifugation for 30 minutes, 13,000 rpm at 4° C. The supernatant was removed from the pellet and stored at −80° C. or processed immediately for gel electrophoresis.
Protein concentration of the samples was quantified using the BCA method (Pierce, Rockford, Ill.) following the manufacturers protocol. Samples were added to SDS-PAGE buffer and boiled for 10 min. before loading onto a 4-12% Bis-Tris pre-cast gel (Invitrogen, Carlsbad, Calif.) for electrophoresis. Proteins were transferred onto PVDF membranes (Bio Rad, Hercules, Calif.) and blocked with AquaBlock™ (New England Biolabs, Ipswich, Mass.) for 1 hour at room temperature (RT). Primary antibody incubation was done in AquaBlock™ with rabbit anti-Met and […] phospho-Met (Tyr1234/1235) (1:1000, Cell Signaling Technology, Danvers, Mass.) overnight at 4° C. Alternating washes were done with PBS and PBST. Secondary antibody (IRDye) (Rockland, Gilbertsville, Pa.) incubations were done in AquaBlock™ for one hour at RT. Blots were imaged using LI-COR Odyssey Infrared Imaging System (LI-COR Biosciences, Lincoln, Nebr.).

T1 sequence (P14210 32-728): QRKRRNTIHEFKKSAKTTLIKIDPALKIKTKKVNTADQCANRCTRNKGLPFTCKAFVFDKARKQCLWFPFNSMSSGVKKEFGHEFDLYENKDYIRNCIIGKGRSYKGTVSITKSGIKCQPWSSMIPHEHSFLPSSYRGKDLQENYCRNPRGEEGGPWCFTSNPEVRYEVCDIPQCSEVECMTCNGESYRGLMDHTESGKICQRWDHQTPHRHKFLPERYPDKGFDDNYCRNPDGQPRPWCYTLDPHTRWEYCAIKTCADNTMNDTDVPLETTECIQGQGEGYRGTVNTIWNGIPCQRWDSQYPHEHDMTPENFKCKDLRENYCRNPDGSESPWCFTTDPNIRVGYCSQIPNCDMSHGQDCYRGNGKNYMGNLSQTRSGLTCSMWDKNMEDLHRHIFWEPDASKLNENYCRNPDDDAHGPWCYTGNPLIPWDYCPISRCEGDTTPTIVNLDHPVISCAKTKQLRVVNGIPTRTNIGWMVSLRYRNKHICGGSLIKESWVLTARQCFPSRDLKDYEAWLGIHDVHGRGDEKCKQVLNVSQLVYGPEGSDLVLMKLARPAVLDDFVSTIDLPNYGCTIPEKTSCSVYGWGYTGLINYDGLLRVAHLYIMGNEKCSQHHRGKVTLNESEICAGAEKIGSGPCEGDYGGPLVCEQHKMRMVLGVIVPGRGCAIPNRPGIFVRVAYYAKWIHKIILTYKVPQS

CCOc1ccc2ccc(=O)oc2c1 [7-ethoxycoumarin, reference compound]
microsomal CLint at 5 µM ([1]; pooled liver microsomes): 137 µL/min/mg

CCCC[C@@H](N)C(=O)N[C@@H](CCSC)C(=O)N[C@H](C(=O)NCCCCCC(N)=O)[C@@H](C)CC [D-Nle-Met-Ile-NH—(CH2)5—CONH2] (H-[dNle]MI[Ahx]-NH2)
inhibition of HGF dimerization [2]: unable to block dimerization at the concentration tested
inhibition of HGF-dependent MDCK cell scattering [3]: The HGF and HGF+Met groups were not different

CCCC[C@@H](N)C(=O)N[C@@H](Cc1c[nH]c2ccccc12)C(=O)N[C@H](C(=O)NCCCCCC(N)=O)[C@@H](C)CC [D-Nle-Trp-Ile-NH—(CH2)5—CONH2] (H-[dNle]WI[Ahx]-NH2)
inhibition of HGF dimerization [2]: intermediate inhibition of dimerization
inhibition of HGF dimerization ([2]; listed as Trp): statistically different than the HGF treated group
inhibition of HGF-dependent MDCK cell proliferation [4]: showed inhibitory activity, albeit less than that observed with the most potent analogs

CN1C(C(=O)Nc2ccccn2)=C(O)c2ccccc2S1(=O)=O [piroxicam, reference compound]
microsomal CLint at 5 µM ([1]; microsomes): 60.2 µL/min/mg

HGF: carrier free adult recombinant Hepatocyte Growth Factor (R and D Systems)
mean spine numbers per 50 μm dendrite length ([5]; neurons transfected with mRFP-β-actin alone, 48 hours): 20.6 spines per 50 μm dendrite leng
mean spine numbers per 50 μm dendrite length ([5]; neurons transfected with mRFP-β-actin and shMet (c-Met knock-down)): 12.4 spines per 50 μm dendrite leng
correlation between Synapsin and postsynaptic actin-enriched spines [6]: 98%
c-Met phosphorylation vs vehicle (aCSF) ([7]; saturating doses: HGF 100 ng/ml, Dihexa 10^−10 M): increased c-Met phosphorylation; also recorded: effectively augment c-Met phosphorylation
c-Met phosphorylation vs vehicle (aCSF) ([7]; sub-threshold doses: HGF 50 ng/ml, Dihexa 10^−12 M): not statistically different from control treated slices; also recorded: did not significantly increase c-Met receptor phosphorylation
